From patent publication US10894790B2, “Production method of thiazole derivative” (KYOWA KIRIN CO., LTD., priority 2015, dated 2021)
Like-named read-outs stand apart in the source and are kept apart here. One block for each compound: values may come before it.

Experiments:
[1] = Stability test (preservation of crystal, powder X-ray diffraction); format: physicochemical
Experimental: Powder X-ray diffraction (permeation method) was measured by pulverizing a sample in an agate mortar, placing an appropriate amount thereof on a sample plate, and measuring diffraction peaks by changing the diffraction angle 2θ from 5° to 40°. The irradiate X ray used was copper Kα ray (CuKα ray), and tube voltage was set to […], tube electric current was set to 40 mA, step angle was set to 0.017°, and counting time was set to 0.56°/sec. The thermal analysis was performed by placing about 2 mg of a sample on an aluminum cell, and measuring differential scanning calorie (DSC) at a temperature rise rate of 10° C./min.
The A crystal obtained in Example 12 was preserved under the conditions of 40° C./75% RH (relative humidity) and 40° C./90% RH (relative humidity) for 6 months each, and powder X-ray diffraction was measured. […] It was confirmed that A crystal is stable even after preservation for a long term under humidified conditions of 40° C./75% RH (relative humidity) and 40° C./90% RH (relative humidity).
The HA crystal obtained in Example 11 was preserved for 2 weeks at 60° C., and then powder X-ray diffraction was measured. […] That is, a part of HA crystal is considered to undergo crystal transition to A crystal at 60° C.

[2] = Absorbability test: plasma kinetics of compound IA after oral administration; format: in vivo; settings: male rats; for AUC0→∞ / Cmax / t1/2 / tmax / AUC(0-inf) / half-life: plasma compound IA
Experimental: HA crystal and A crystal obtained in Examples 11 and 12 were orally administered to male rats respectively, and plasma kinetics of compound IA were evaluated.

[3] = male, rat, plasma, po, 10 mg/kg

change of powder X-ray diffraction pattern after preservation ([1]; 40° C./75% RH, 6 months): did not show any change
change of powder X-ray diffraction pattern after preservation ([1]; 40° C./90% RH, 6 months): did not show any change
bioavailability (in words) [2]: good bioavailability
rise of plasma concentration, A crystal compared with HA crystal [2]: increased more rapidly
BA ([2]; dose 1 mg/kg): 53.7%
AUC0→∞ ([2]; dose 1 mg/kg): 5350 ng·h/mL
Cmax ([2]; dose 1 mg/kg): 1410 ± 270 ng/mL
t1/2 ([2]; dose 1 mg/kg): 2.26 ± 0.26 h
tmax ([2]; dose 1 mg/kg): 1.00 ± 0.00 h
BA ([2]; dose 10 mg/kg): 51.2%
AUC0→∞ ([2]; dose 10 mg/kg): 51000 ng·h/mL
Cmax ([2]; dose 10 mg/kg): 11400 ± 1400 ng/mL
t1/2 ([2]; dose 10 mg/kg): 1.77 ± 0.09 h
tmax ([2]; dose 10 mg/kg): 1.67 ± 0.58 h
Structure (SMILES): Cc1ccc(C(=O)Nc2nc(-c3ccco3)c(C(=O)C3CCOCC3)s2)cn1 [A crystal]

bioavailability (in words) [2]: good bioavailability
BA ([2]; dose 1 mg/kg): 59.5%
BA ([2]; dose 10 mg/kg): 56.8%
Cmax ([2]; male, rat, plasma, po, 1 mg/kg, dose 1 mg/kg, read-out: Cmax): 1500 ± 100 ng/mL
tmax ([2]; male, rat, plasma, po, 1 mg/kg, dose 1 mg/kg, read-out: tmax): 1.33 ± 0.58 h
AUC(0-inf) ([2]; male, rat, plasma, po, 1 mg/kg): 5930 ng·h/mL
half-life ([2]; male, rat, plasma, po, 1 mg/kg): 2.08 ± 0.13 h
Cmax ([2]; male, rat, plasma, po, 10 mg/kg, dose 10 mg/kg, read-out: Cmax): 10900 ± 800 ng/mL
tmax ([2]; male, rat, plasma, po, 10 mg/kg, dose 10 mg/kg, read-out: tmax): 2 h
AUC(0-inf) [2, 3]: 56600 ng·h/mL
half-life [2, 3]: 3.43 ± 1.14 h
Structure (SMILES): Cc1ccc(C(=O)Nc2nc(-c3ccco3)c(C(=O)C3CCOCC3)s2)cn1 [HA crystal]
change of powder X-ray diffraction pattern after preservation ([1]; 60° C., 2 weeks): show a diffraction peak characteristic of A crystal
